Test results published in patent publication US6706663B2, “Herbicidal 3-heterocyclic substituted benzisothiazole and benzisoxazole compounds” (Wyeth, priority 2000, dated 2004).

What was measured:
[1] = test system: ABUTH (Abutilon theophrasti); assay: Postemergence herbicidal evaluation; assay type: in vivo, Medic.
Method in brief: (§1)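 Seedlings grown about two weeks in flats, sprayed, then kept under standard greenhouse care. Rated visually 4–5 weeks after treatment on a 0–9 scale (stand, vigour, malformation, size, chlorosis, overall appearance) relative to untreated control; repeat tests averaged.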

[2] = test system: AMBEL (Ambrosia artemisifolia); assay: Postemergence herbicidal evaluation; assay type: in vivo, L.
Method in brief: as §1

[3] = test system: CASOB (Cassia obtusifolia); assay: Postemergence herbicidal evaluation; assay type: in vivo, L.
Method in brief: as §1

[4] = test system: CHEAL (Chenopodium album); assay: Postemergence herbicidal evaluation; assay type: in vivo, L.
Method in brief: as §1

GALAP (Galium aparine) [5] = assay: Postemergence herbicidal evaluation; assay type: in vivo
Method in brief: as §1

[6] = test system: ECHCG (Echinochloa crus-galli); assay: Postemergence herbicidal evaluation; assay type: in vivo, (L.) Beau
Method in brief: as §1

[7] = test system: GLXMAW (Soybean, Williams); assay: Postemergence herbicidal evaluation; assay type: in vivo, Glycine max, (L.) Merr. cv Williams
Method in brief: as §1

ORYSAT (Rice, Tebonnet) [8] = assay: Postemergence herbicidal evaluation; assay type: in vivo, Oryza sativa, (L.) Tebonnet
Method in brief: as §1

ZEAMX (Corn, Field) = assay: Postemergence herbicidal evaluation; assay type: in vivo, Zea mays, L.
Method in brief: as §1

[9] = test system: ABUTH (Abutilon theophrasti); assay: Preemergence herbicidal evaluation; assay type: in vivo, Medic.; conditions: preemergence, rated 4-5 weeks after treatment
[10] = test system: AMBEL (Ambrosia artemisifolia); assay: Preemergence herbicidal evaluation; assay type: in vivo, L.; conditions: preemergence, rated 4-5 weeks after treatment
Method in brief: (§2)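 Scores (0–9) reflect visual comparison with control plants for stand, vigor, malformation, size and chlorosis. Seeds in potting soil received a post-planting spray of compound in aqueous acetone and grew in a greenhouse until assessment 4–5 weeks later.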

[11] = test system: CASOB (Cassia obtusifolia); assay: Preemergence herbicidal evaluation; assay type: in vivo, L.; conditions: preemergence, rated 4-5 weeks after treatment
Method in brief: as §2

[12] = test system: CHEAL (Chenopodium album); assay: Preemergence herbicidal evaluation; assay type: in vivo, L.; conditions: preemergence, rated 4-5 weeks after treatment
Method in brief: as §2

GALAP (Galium aparine) [13] = assay: Preemergence herbicidal evaluation; assay type: in vivo; conditions: preemergence, rated 4-5 weeks after treatment
Method in brief: as §2

[14] = test system: IPOHE (Ipomoea hederacea); assay: Preemergence herbicidal evaluation; assay type: in vivo, (L.) Jacq.; conditions: preemergence, rated 4-5 weeks after treatment
ORYSAT (Rice, Tebonnet) [15] = assay: Preemergence herbicidal evaluation; assay type: in vivo, Oryza sativa, (L.) Tebonnet; conditions: preemergence, rated 4-5 weeks after treatment
[16] = test system: TRZAWR (Wheat, Winter, cv Riband); assay: Preemergence herbicidal evaluation; assay type: in vivo, Triticum aestivum; conditions: preemergence, rated 4-5 weeks after treatment
Method in brief: as §2

[17] = test system: CYPSE (Cyperus serotinus); assay: Flooded paddy, preemergence weed control; assay type: in vivo, Rottb.; conditions: rated 3-4 weeks after treatment, 0-9 rating scale
Method in brief: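 Seeds or propagules were planted 0.5 cm deep in silt loam and flooded to 1.5–3 cm. Compounds in 50/50 v/v aqueous/acetone were pipetted into the flood water at about 0.0080 to 0.1250 kg/ha. After 3–4 weeks in the greenhouse, effect was rated visually on a 0–9 scale versus untreated control.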

[18] = test system: SAGPY (Sagittaria pygmaea); assay: Flooded paddy, preemergence weed control; assay type: in vivo, L.; conditions: rated 3-4 weeks after treatment, 0-9 rating scale
Method in brief: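 Greenhouse paddy test, preemergence. Seeds planted in the top 0.5 cm of silt loam soil, which remained flooded at 1.5–3 cm depth. Scored 0-9 by visual comparison with control.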

ORYSAT (Rice, Tebonnet) [19] = assay: Flooded paddy, post-transplant rice tolerance; assay type: in vivo, Oryza sativa, (L.) Tebonnet; conditions: flooded paddy, post-transplant rice, rated 3-4 weeks after treatment, 0-9 rating scale
Method in brief: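 Scores (0-9) reflect visual injury relative to untreated plants in flooded silt loam. Each pot held two transplanted ten-day-old seedlings under 1.5 to 3 cm standing water in the greenhouse.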

Cn1c(C(F)(F)F)cc(=O)n(-c2ccc3snc(-c4ccsc4)c3c2)c1=O [Compound 1, 1-methyl-3-[3-(3-thienyl)-1,2-benzisothiazol-5-yl]-6-(trifluoromethyl)uracil]
Postemergence herbicidal rating, ABUTH ([1]; rate 0.0320 kg/ha): 9.0
Postemergence herbicidal rating, ABUTH ([1]; rate 0.0620 kg/ha): 9.0
Postemergence herbicidal rating, ABUTH ([1]; rate 0.1250 kg/ha): 9.0
Postemergence herbicidal rating, AMBEL ([2]; rate 0.0320 kg/ha): 9.0
Postemergence herbicidal rating, AMBEL ([2]; rate 0.0620 kg/ha): 9.0
Postemergence herbicidal rating, AMBEL ([2]; rate 0.1250 kg/ha): 9.0
Postemergence herbicidal rating, CASOB ([3]; rate 0.0320 kg/ha): 5.5
Postemergence herbicidal rating, CASOB ([3]; rate 0.0620 kg/ha): 7.5
Postemergence herbicidal rating, CASOB ([3]; rate 0.1250 kg/ha): 9.0
Postemergence herbicidal rating, CHEAL ([4]; rate 0.0320 kg/ha): 9.0
Postemergence herbicidal rating, CHEAL ([4]; rate 0.0620 kg/ha): 9.0
Postemergence herbicidal rating, CHEAL ([4]; rate 0.1250 kg/ha): 9.0
Postemergence herbicidal rating, GALAP (GALAP (Galium aparine) [5]; rate 0.0320 kg/ha): 5.0
Postemergence herbicidal rating, GALAP (GALAP (Galium aparine) [5]; rate 0.0620 kg/ha): 6.5
Postemergence herbicidal rating, GALAP (GALAP (Galium aparine) [5]; rate 0.1250 kg/ha): 7.5
Postemergence herbicidal rating, ECHCG ([6]; rate 0.0320 kg/ha): 2.0
Postemergence herbicidal rating, ECHCG ([6]; rate 0.0620 kg/ha): 2.5
Postemergence herbicidal rating, ECHCG ([6]; rate 0.1250 kg/ha): 4.0
Postemergence herbicidal rating, GLXMAW ([7]; rate 0.0320 kg/ha): 6.8
Postemergence herbicidal rating, GLXMAW ([7]; rate 0.0620 kg/ha): 7.0
Postemergence herbicidal rating, GLXMAW ([7]; rate 0.1250 kg/ha): 7.8
Postemergence herbicidal rating, ORYSAT (ORYSAT (Rice, Tebonnet) [8]; rate 0.0320 kg/ha): 3.5
Postemergence herbicidal rating, ORYSAT (ORYSAT (Rice, Tebonnet) [8]; rate 0.0620 kg/ha): 3.5
Postemergence herbicidal rating, ORYSAT (ORYSAT (Rice, Tebonnet) [8]; rate 0.1250 kg/ha): 5.0
Postemergence herbicidal rating, ZEAMX (ZEAMX (Corn, Field); rate 0.0320 kg/ha): 5.5
Postemergence herbicidal rating, ZEAMX (ZEAMX (Corn, Field); rate 0.0620 kg/ha): 5.8
Postemergence herbicidal rating, ZEAMX (ZEAMX (Corn, Field); rate 0.1250 kg/ha): 6.0
ABUTH preemergence herbicidal rating ([9]; Rate 0.0620 kg/ha): 9.0
ABUTH preemergence herbicidal rating ([9]; Rate 0.1250 kg/ha): 9.0
ABUTH preemergence herbicidal rating ([9]; Rate 0.2500 kg/ha): 9.0
AMBEL preemergence herbicidal rating ([10]; Rate 0.0620 kg/ha): 7.3
AMBEL preemergence herbicidal rating ([10]; Rate 0.1250 kg/ha): 9.0
AMBEL preemergence herbicidal rating ([10]; Rate 0.2500 kg/ha): 9.0
CASOB preemergence herbicidal rating ([11]; Rate 0.0620 kg/ha): 7.3
CASOB preemergence herbicidal rating ([11]; Rate 0.1250 kg/ha): 8.3
CASOB preemergence herbicidal rating ([11]; Rate 0.2500 kg/ha): 8.3
CHEAL preemergence herbicidal rating ([12]; Rate 0.0620 kg/ha): 9.0
CHEAL preemergence herbicidal rating ([12]; Rate 0.1250 kg/ha): 9.0
CHEAL preemergence herbicidal rating ([12]; Rate 0.2500 kg/ha): 9.0
GALAP preemergence herbicidal rating (GALAP (Galium aparine) [13]; Rate 0.0620 kg/ha): 9.0
GALAP preemergence herbicidal rating (GALAP (Galium aparine) [13]; Rate 0.1250 kg/ha): 7.0
GALAP preemergence herbicidal rating (GALAP (Galium aparine) [13]; Rate 0.2500 kg/ha): 6.5
IPOHE preemergence herbicidal rating ([14]; Rate 0.0620 kg/ha): 8.0
IPOHE preemergence herbicidal rating ([14]; Rate 0.1250 kg/ha): 9.0
IPOHE preemergence herbicidal rating ([14]; Rate 0.2500 kg/ha): 9.0
ORYSAT preemergence herbicidal rating (ORYSAT (Rice, Tebonnet) [15]; Rate 0.0620 kg/ha): 5.0
ORYSAT preemergence herbicidal rating (ORYSAT (Rice, Tebonnet) [15]; Rate 0.1250 kg/ha): 5.0
ORYSAT preemergence herbicidal rating (ORYSAT (Rice, Tebonnet) [15]; Rate 0.2500 kg/ha): 6.5
TRZAWR preemergence herbicidal rating ([16]; Rate 0.0620 kg/ha): 3.5
TRZAWR preemergence herbicidal rating ([16]; Rate 0.1250 kg/ha): 4.0
TRZAWR preemergence herbicidal rating ([16]; Rate 0.2500 kg/ha): 5.0
herbicidal rating, CYPSE ([17]; rate 0.0320 kg/ha): 3.5
herbicidal rating, CYPSE ([17]; rate 0.1250 kg/ha): 9.0
herbicidal rating, SAGPY ([18]; rate 0.0080 kg/ha): 4.0
herbicidal rating, SAGPY ([18]; rate 0.0320 kg/ha): 4.0
herbicidal rating, SAGPY ([18]; rate 0.1250 kg/ha): 5.5
herbicidal rating, ORYSAT (rice tolerance) (ORYSAT (Rice, Tebonnet) [19]; rate 0.0080 kg/ha): 4.0
herbicidal rating, ORYSAT (rice tolerance) (ORYSAT (Rice, Tebonnet) [19]; rate 0.0320 kg/ha): 5.5
herbicidal rating, ORYSAT (rice tolerance) (ORYSAT (Rice, Tebonnet) [19]; rate 0.1250 kg/ha): 7.0
